From BindingDB's records for patent US11957687 (Regeneron Pharmaceuticals, 2024)

Target: T1, 17-beta-hydroxysteroid dehydrogenase 13 (Homo sapiens, UniProt Q7Z5P4)
T1 sequence (Q7Z5P4 whole entry): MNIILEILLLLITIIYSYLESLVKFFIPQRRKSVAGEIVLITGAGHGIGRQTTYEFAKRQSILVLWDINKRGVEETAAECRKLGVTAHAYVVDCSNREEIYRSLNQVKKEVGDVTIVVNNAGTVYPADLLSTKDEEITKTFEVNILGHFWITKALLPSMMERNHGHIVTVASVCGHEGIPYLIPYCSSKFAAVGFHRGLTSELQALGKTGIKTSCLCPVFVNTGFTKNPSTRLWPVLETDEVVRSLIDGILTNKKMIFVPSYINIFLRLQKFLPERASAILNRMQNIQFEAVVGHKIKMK
Experiment: HSD17B13 Enzymatic Blocking Assay (50nM)
Protocol: Compounds of the disclosure were screened for their ability to block HSD17B13 function using an enzymatic blocking assay. HSD17B13 activity was quantified using a NADH Glo luminescence assay (Promega, #Cat. No. G9062) to measure the formation of NADH from the oxidation of LTB4, a known HSD17B13 substrate. Compounds were over a 10-point dose curve using an Echo-555 liquid handling dispenser. HSD17B13 (SEQ ID NO: 1, expressed in E. coli) was added at […] a final concentration of 50 nM, depending on the assay run, in a buffer containing 0.2M Tris-HCl pH 7.5 containing 0.01% Triton-X into a low volume white 384-well assay plate. Compounds were incubated with the enzyme for 30 minutes at room temperature. The assay reaction was then initiated by addition of 10 μM LTB4 substrate (Cayman chemicals, Cat. No. 20110) and 500 μM NAD, and the reaction mixture was incubated for 1 or 2 hours at room temperature depending on the assay run. DMSO at a concentration of 0.5% was used as a negative control, and a ‘no substrate’ control was used as a positive control (100% inhibition) in the assay. […] Generation of NADH was detected in the luminescence mode on the Envision Perkin Elmer plate reader. The IC50 values were determined using Dotmatics analysis software.

| IC50 | SMILES |
| --- | --- |
| 80 nM | CCCC1Cc2ccc(C)cc2C1NC(=O)c1ccc(C(F)(F)F)[nH]c1=O (configuration not stated) [US11957687, Compound 291] |
| 3450 nM | CC(C)(C)OC(=O)NCCc1cccc2c1CCCC2NC(=O)c1ccc(C(F)(F)F)[nH]c1=O (configuration not stated) [US11957687, Compound 301] |
